pIC50, pKd: −log10 of the molar value.

Data set [1] addresses Tumour suppressor p53/oncoprotein Mdm2 (Homo sapiens, UniProt Q00987). In words: Inhibition of p53-binding to HDM2 (human MDM2) by fluorescence polarization peptide displacement assay. Format: protein assay. (Fluorescence polarisation rises when a labelled molecule tumbles more slowly, as on binding a larger partner.)
Data set [2] in a line: Dissociation constant was determined; (by measuring difference in protein melting temperature). In kind it is physicochemical.

Chain of Tumour suppressor p53/oncoprotein Mdm2 (P04637 whole entry): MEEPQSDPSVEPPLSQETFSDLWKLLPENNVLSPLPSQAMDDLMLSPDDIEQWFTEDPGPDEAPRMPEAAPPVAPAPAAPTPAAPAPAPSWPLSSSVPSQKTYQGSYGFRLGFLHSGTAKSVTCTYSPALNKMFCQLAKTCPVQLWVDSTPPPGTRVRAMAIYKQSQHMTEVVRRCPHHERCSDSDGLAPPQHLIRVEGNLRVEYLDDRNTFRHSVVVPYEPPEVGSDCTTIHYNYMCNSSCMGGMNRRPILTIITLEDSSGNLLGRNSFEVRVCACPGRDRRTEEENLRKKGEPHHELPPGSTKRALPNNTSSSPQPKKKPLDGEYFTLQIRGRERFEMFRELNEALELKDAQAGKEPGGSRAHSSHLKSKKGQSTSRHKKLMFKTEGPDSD
Chain of Tumour suppressor p53/oncoprotein Mdm2 (Q00987 whole entry): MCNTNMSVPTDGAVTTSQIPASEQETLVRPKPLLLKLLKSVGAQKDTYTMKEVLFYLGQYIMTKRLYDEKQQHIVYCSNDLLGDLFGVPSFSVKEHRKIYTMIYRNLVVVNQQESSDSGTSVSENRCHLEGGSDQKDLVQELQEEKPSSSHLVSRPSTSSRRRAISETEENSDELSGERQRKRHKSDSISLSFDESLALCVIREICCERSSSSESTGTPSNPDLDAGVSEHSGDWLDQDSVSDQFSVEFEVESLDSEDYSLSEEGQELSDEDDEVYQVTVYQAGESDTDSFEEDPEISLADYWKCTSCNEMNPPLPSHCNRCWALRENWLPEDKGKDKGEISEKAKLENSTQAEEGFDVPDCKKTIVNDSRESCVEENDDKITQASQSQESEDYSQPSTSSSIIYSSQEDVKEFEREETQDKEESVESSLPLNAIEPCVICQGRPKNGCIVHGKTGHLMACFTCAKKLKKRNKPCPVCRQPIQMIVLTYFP

What is called pIC50 is −log10 of the IC50, conventionally taken in molar units. Read a low pIC50 as a high IC50. As for `O=C(O)[C@H](c1ccc(C(F)(F)F)cc1)N1C(=O)c2cc(I)ccc2NC(=O)[C@@H]1c1ccc(Cl)cc1`, the negative logarithm of the IC50 (pIC50) in data set [1] was 6.17. Same read-out and setting: as for `O=C(O)[C@H](c1ccccc1)N1C(=O)c2cc(I)ccc2NC(=O)[C@@H]1c1ccccc1`, the figure is 4.42.

What is called pKd is the negative decadic logarithm of the Kd, by convention in mol/L. `CC(C)c1ccc([C@@H](C(=O)O)N2C(=O)c3cc(I)ccc3NC(=O)[C@@H]2c2ccc(Cl)cc2)cc1` gave a pIC50 in data set [1] of 5.81. The pKd in data set [2] was 7.08. For `Cc1ccc([C@H]2C(=O)Nc3ccc(I)cc3C(=O)N2[C@H](C(=O)O)c2ccccc2)cc1`, the pIC50 in data set [1] was 4.88. For the molecule `O=C(O)[C@H](c1ccccc1)N1C(=O)c2cc(I)ccc2NC(=O)[C@@H]1c1cccc(C(F)(F)F)c1`, the pIC50 in data set [1] was 4.35. In the case of `O=C(O)[C@H](c1ccc(Cl)cc1)N1C(=O)c2ccc(Cl)cc2NC(=O)[C@@H]1c1ccc(Cl)cc1`, in data set [1], the pIC50 was 5.20. In data set [2], this molecule had a pKd of 5.78. Consider `O=C1Nc2ccc(I)cc2C(=O)N([C@H](C(=O)O)c2ccccc2Cl)[C@H]1c1ccc(Cl)cc1`, for which, in data set [1], the negative-log IC50 (pIC50) is 4.70.

In turn, `O=C(O)[C@H](c1ccc(Cl)cc1)N1C(=O)c2cc(CCO)ccc2NC(=O)[C@@H]1c1ccc(Cl)cc1` had a negative logarithm of the IC50 (pIC50) in data set [1] of 5.62. On to `O=C(O)[C@H](c1ccc(Cl)nc1)N1C(=O)c2cc(I)ccc2NC(=O)[C@@H]1c1cc2ccccc2[nH]1`, for which the pIC50 in data set [1] is 5.10. As for `O=C(O)[C@H](c1ccc(Cl)nc1)N1C(=O)c2cc(I)ccc2NC(=O)[C@@H]1c1ccc(Cl)cc1`, the pIC50 in data set [1] is 5.83.

`Cc1ccc([C@@H](C(=O)O)N2C(=O)c3cc(I)ccc3NC(=O)[C@@H]2c2ccc(Cl)cc2)cc1` had a pIC50 in data set [1] of 5.80. This molecule had a pKd in data set [2] of 6.78. Regarding `O=C(O)[C@H](c1ccc(Cl)cc1)N1C(=O)c2cc(I)ccc2NC[C@@H]1c1ccc(Cl)cc1`, the negative-log IC50 (pIC50) in data set [1] was 6.31. On the same count and under the same terms, as for `CC(C)(C)c1ccc([C@@H](C(=O)O)N2C(=O)c3cc(I)ccc3NC(=O)[C@@H]2c2ccc(Cl)cc2)cc1`, the figure is 5.64.

In data set [1], `O=C(O)[C@H](c1ccc(Cl)cc1)N1C(=O)c2ccccc2NC(=O)[C@@H]1c1ccc(Cl)cc1` showed a pIC50 of 4.83. In data set [2], this molecule gave a pKd of 5.11. In data set [1], `O=C(O)[C@H](c1ccc(Br)cc1)N1C(=O)c2cc(I)ccc2NC(=O)[C@@H]1c1ccc(Cl)cc1` had a negative-log IC50 (pIC50) of 6.21. In data set [2], this molecule had a negative logarithm of the Kd (pKd) of 7.08. On to `O=C(O)[C@H](c1ccc(Cl)cc1)N1C(=O)c2cc(I)ccc2NC(=O)[C@@H]1c1ccc(C(F)(F)F)cc1`, for which, in data set [1], the pIC50 is 6.21.

Take `CC(C)(C)c1ccc2c(c1)C(=O)N([C@H](C(=O)O)c1ccc(Cl)cc1)[C@@H](c1ccc(Cl)cc1)C(=O)N2`: the pIC50 in data set [1] was 5.64. This pIC50 is 0.57 log units lower than that of the molecule before. Turning to `CC(C)c1ccc2c(c1)C(=O)N([C@H](C(=O)O)c1ccc(Cl)cc1)[C@@H](c1ccc(Cl)cc1)C(=O)N2`, the pIC50 in data set [1] was 5.99. The molecule `CCCC[C@@H](C(=O)O)N1C(=O)c2cc(I)ccc2NC(=O)[C@@H]1c1ccc(Cl)cc1` showed a pIC50 in data set [1] of 4.85. Compared with the last molecule, the pIC50 is 1.14 log units lower. Same read-out and setting: as for `O=C(O)[C@H](c1ccc(Cl)nc1)N1C(=O)c2cc(I)ccc2NC(=O)[C@@H]1c1c[nH]c2ccccc12`, the figure is 4.26. `CCc1ccc2c(c1)C(=O)N([C@H](C(=O)O)c1ccc(Cl)cc1)[C@@H](c1ccc(Cl)cc1)C(=O)N2`: in data set [1], the pIC50 was 5.82.

`O=C(O)[C@H](c1ccc(Cl)cc1)N1C(=O)c2cc(CO)ccc2NC(=O)[C@@H]1c1ccc(Cl)cc1` had a pIC50 in data set [1] of 5.48. For `O=C(O)[C@H](c1ccccc1)N1C(=O)c2cc(I)ccc2NC(=O)[C@@H]1c1ccc(OC(F)(F)F)cc1`, the pIC50 in data set [1] was 5.88. With `C#Cc1ccc2c(c1)C(=O)N([C@H](C(=O)O)c1ccc(Cl)cc1)[C@@H](c1ccc(Cl)cc1)C(=O)N2`, in data set [1], the pIC50 was 6.06. Also, in data set [2], the pKd is 6.60.

Take `N#Cc1ccc2c(c1)C(=O)N([C@H](C(=O)O)c1ccc(Cl)cc1)[C@@H](c1ccc(Cl)cc1)C(=O)N2`: the pIC50 in data set [1] was 4.83. In addition, the pKd in data set [2] was 5.00. In turn, `O=C(O)[C@H](c1ccc(Cl)cc1)N1C(=O)c2cc(Cl)ccc2NC(=O)[C@@H]1c1ccc(Cl)cc1` showed a pIC50 in data set [1] of 6.08. For the same molecule, the pKd in data set [2] was 5.82. `O=C(O)[C@H](c1ccc(O)cc1)N1C(=O)c2cc(I)ccc2NC(=O)[C@@H]1c1ccc(Cl)cc1` showed a negative-log IC50 (pIC50) in data set [1] of 4.78. This molecule gave a pKd in data set [2] of 4.84. `CC(C)CC[C@@H](C(=O)O)N1C(=O)c2cc(I)ccc2NC(=O)[C@@H]1c1ccc(Cl)cc1` had a negative logarithm of the IC50 (pIC50) in data set [1] of 4.92. For `CCc1ccc([C@H]2C(=O)Nc3ccc(I)cc3C(=O)N2[C@H](C(=O)O)c2ccccc2)cc1`, the pIC50 in data set [1] is 5.12.

In data set [1], `CC(=O)Nc1ccc2c(c1)C(=O)N([C@H](C(=O)O)c1ccc(Cl)cc1)[C@@H](c1ccc(Cl)cc1)C(=O)N2` had a pIC50 below 3.90. Molecule `O=C1Nc2ccc(I)cc2C(=O)N([C@@H](Cc2ccccc2)C(=O)O)[C@H]1c1ccc(Cl)cc1` showed a pIC50 in data set [1] of 4.92. For the molecule `O=C(O)[C@H](c1ccc(Cl)cc1)N1C(=O)c2cc(I)c(Cl)cc2NC(=O)[C@@H]1c1ccc(Cl)cc1`, the pIC50 in data set [1] was 6.15. In addition, the pKd in data set [2] was 6.78. In data set [1], `O=C(O)[C@H](c1ccccc1)N1C(=O)c2cc(I)ccc2NC(=O)[C@@H]1c1ccc(Cl)cc1` gave a pIC50 of 5.60. Still for that read-out and setting: as for `O=C1Nc2ccc(I)cc2C(=O)N([C@H](C(=O)O)C2CCCCC2)[C@H]1c1ccc(Cl)cc1`, the figure is 4.19. For `CC(C)c1ccc([C@H]2C(=O)Nc3ccc(I)cc3C(=O)N2[C@H](C(=O)O)c2ccccc2)cc1`, the pIC50 in data set [1] is 4.74. As to `O=C(O)[C@H](c1cccc(Cl)c1)N1C(=O)c2cc(I)ccc2NC(=O)[C@@H]1c1ccc(Cl)cc1`, the negative logarithm of the IC50 (pIC50) in data set [1] was 5.57. This pIC50 is 0.83 log units higher than that of the molecule before. In data set [1], `O=C(O)[C@H](c1ccc(Cl)cc1)N1C(=O)c2cc(I)ccc2NC(=O)[C@@H]1c1ccc(Cl)nc1` showed a negative-log IC50 (pIC50) of 5.13. `O=C(O)[C@H](c1ccc(Cl)cc1)N1C(=O)c2cc(Br)ccc2NC(=O)[C@@H]1c1ccc(Cl)cc1`: the pIC50 in data set [1] is 6.08. For the same molecule, in data set [2], the pKd was 6.01. In data set [1], `O=C(O)[C@H](c1ccc(Cl)cc1)N1C(=O)c2cc(I)ccc2NC(=O)[C@@H]1c1ccc(OC(F)(F)F)cc1` gave a pIC50 of 7.08. Besides, in data set [2], the pKd is 6.12. Take `O=C(O)[C@H](c1ccc(Cl)cc1)N1Cc2cc(I)ccc2NC[C@@H]1c1ccc(Cl)cc1`: the pIC50 in data set [1] is below 3.90. Molecule `O=C(O)[C@H](c1ccccc1)N1C(=O)c2cc(I)ccc2NC(=O)[C@@H]1c1ccccc1C(F)(F)F` gave a pIC50 in data set [1] below 3.90.
